# Patent US6211209A, “Method of inhibiting connective tissue degradation” (Warner-Lambert Company, priority 1998, dated 2001)
# Key:
# Assay type in all cases: cell-based
# 92 kDa gelatinase = experiment: Gelatin zymography of bovine nasal cartilage conditioned media: expression of 92 kDa gelatinase
# Experimental: (§1) To evaluate the effects of the compounds of the present invention on the expression of 72 kDa and 92 kDa gelatinases, samples obtained from the bovine nasal cartilage study (described above) were subjected to gelatin zymography.
# (§2) Separating gels (8%) were made by combining 400 μL gelatin (25 mg/mL) with: 2.5 mL Tris (1.5 M); 100 μL SDS (10%); 2.6 mL acrylamide (30%); 10 μL TEMED; 4.6 mL dH2 O; 100 μL ammonium persulfate (10%). Stacking gels (4.5%) were formed by combining: 2.5 mL Tris (0.5 M); 100 μL SDS (10%); 1.5 mL acrylamide (30%); 10 μL TEMED; 5.8 mL dH2 O; 100 μL ammonium persulfate (10%).
# (§3) Bovine nasal cartilage conditioned media was diluted (1:15) using sample buffer 1X (2% SDS, 15% glycerol, 0.01% bromophenol blue, 0.25M Trizma Base, pH 6.8). Thirty microliters of each of the diluted samples and molecular weight standards were subjected to electrophoresis at 4° C. under constant current conditions (20 mA of current/gel) using Tris/Glycine running buffer (0.5 M Trizma Base, pH 8.8 using glycine, 1% SDS) that was diluted 1:20 before use.
# After completion of the electrophoretic procedure, the gel was first washed twice for 15 minutes in 2.5% Triton X-100. The gel was then rinsed with the gel incubation buffer (0.05 M Tris, pH 8.2, 0.005 M CaCl2, 0.5 μM ZnCl2) and incubated overnight in this buffer at 37° C. After the incubation period, the gel was stained for 30 minutes in 0.125% Coomassie and destained using 10% methanol/5% acetic acid destaining solution.
# 72 kDa gelatinase = experiment: Gelatin zymography of bovine nasal cartilage conditioned media: expression of 72 kDa gelatinase; conditions: various concentrations, FIG. 1
# Experimental: as §1, §2, §3
# After completion of the electrophoretic procedure, the gel was first washed twice for 15 minutes in 2.5% Triton X-100. The gel was then rinsed with the gel incubation buffer (0.05 M Tris, pH 8.2, 0.005 M CaCl2, 0.5 μM ZnCl2) and incubated overnight in this buffer at 37° C. […]
# [1] = test system: human articular cartilage; experiment: Human articular cartilage assay: IL-1α-induced proteoglycan loss from osteoarthritic cartilage; conditions: for % Proteoglycan Release: 30 μM, with IL-1α, mean ± SE
# Source text: Human articular cartilage was obtained from St. Joseph Hospital in Ypsilanti, Mich.; cell culture reagents from Gibco (Grand Island, N.Y.); human recombinant Interleukin-1α (IL1α) from Genzyme (Cambridge, Mass.); DMB from Polysciences (Warrington, Pa.); Falcon 24 well flat-bottom tissue culture plates from Becton Dickinson (Lincoln Park, N.Y.); Papain from Sigma (P-3125, St. Louis, Mo.); high purity dimethyl sulfoxide from Burdic & Jackson (081-1, Distributed by Baxter Healthcare, McGraw Park, Ill.); Sarstedt vials for 96-vial aluminum racks (Sarstedt, Newton, N.C.); Cetus Pro/Pette (Perkin Elmer, Norwalk, Conn.); Biomek 1000 (Beckman, Fullerton, Calif.)
# The assay was performed in two phases. The cartilage pieces were first incubated with IL-1α in the presence of compound. The amount of proteoglycan released was then quantified by measuring chondroitin sulfate present in the media using the 1,9-Dimethylmethylene Blue Assay (DMB).
# The articular cartilage used in this study was obtained from osteoarthritis patients undergoing total knee or hip replacment surgery. The ages of the patients ranged from 50 to 70 years. To establish cartilage organ cultures, uniform cartilage slices measuring 11 mm×11 mm were dissected from the underlying bone using a #20 scalpel blade and placed in isotonic saline. The cartilage slices were washed in Gey's balanced salt solution and placed (one piece/well) in Falcon 24 well flat-bottom tissue culture plates (Becton Dickinson, Lincoln Park, N.J.). The cartilage organ cultures were maintained in complete Ham's F-12 (supplemented with 10% fetal calf serum, 6.5 mg/mL Hepes, 58.5 μg/mL glutamine, 200 μg/mL MgSO4, 100 units/mL Pencillin G sodium, 100 μg/mL streptomycin sulfate, and 0.25 μg/mL amphotericin B) at 37° C. in a humidified atmosphere of 95% air and 5% CO2. The cartilage cultures were allowed to equilibrate in this medium for 4 to 5 days. Just before starting the experiment, the serum-containing spent medium was removed and cartilage cultures rinsed with 1 mL F-12 Nutrient Mixture (without phenol red) in order to remove residual FCS. Each treatment group was done in triplicate. […] All the media removed from cultures was collected and analyzed using the 1,9 DMB assay. At the end of experimental period, cartilage pieces were digested with papain and analysed using the 1,9 DMB assay.
# The ability of a compound to inhibit proteoglycan release from cartilage pieces was quantified by measuring chondroitin sulfate. […] This color change was measured using a Titertek Multiscan MCC 340 plate reader at 540 nm. […] It was necessary to dilute (1:5, 1:10) the medium before a DMB assay was performed by adding 10 μL of collected media to 290 μL DMB (16 mg dye/L of 0.1 M formate buffer, pH 3.5, containing 5 mL ethanol) and reading at 540 nm. […]
smiles,measurement,setting,value
"S=c1[nH]nc(-c2ccccc2Nc2ccccc2)o1 [Compound 1, 5-(2-Phenylamino-phenyl)-3H-[1,3,4]oxadiazole-2-thione]",inhibiting expression of IL-1β-induced 92 kDa gelatinase,"92 kDa gelatinase; various concentrations, IL-1β-induced, FIG. 1",effective in inhibiting expression of IL-1β-induced 92 kDa gelatinase in a dose-dependent manner
same,specificity of effects (92 kDa versus 72 kDa gelatinase),92 kDa gelatinase; versus 72 kDa gelatinase,specific to 92 kDa
same,effect on expression of 72 kDa gelatinase,72 kDa gelatinase,no effect on expression of 72 kDa gelatinase
same,% Proteoglycan Release,"[1]; 48 hours, n = 3 (control 3.7, IL-1α 9.0)",4.0 ± 0.2%
same,% Proteoglycan Release,"[1]; 96 hours, n = 3 (control 5.7, IL-1α 14.4)",7.4 ± 0.4%
same,% Proteoglycan Release,"[1]; 144 hours, n = 3 (control 7.0, IL-1α 16.9)",10.0 ± 0.8%
same,inhibition at 30 µM,"[1]; over the course of the experiment, human osteoarthritic cartilage",> 70%
